Here are results for one molecule from ChEMBL document CHEMBL2417374, “Resistance by allostery: a novel perspective for eg5-targeted drug design” (J Med Chem, 2013).

The subject of the assay is T1, Kinesin-like protein KIF11 (Homo sapiens), P52732 [D130V,A133D].
T1 sequence (whole entry): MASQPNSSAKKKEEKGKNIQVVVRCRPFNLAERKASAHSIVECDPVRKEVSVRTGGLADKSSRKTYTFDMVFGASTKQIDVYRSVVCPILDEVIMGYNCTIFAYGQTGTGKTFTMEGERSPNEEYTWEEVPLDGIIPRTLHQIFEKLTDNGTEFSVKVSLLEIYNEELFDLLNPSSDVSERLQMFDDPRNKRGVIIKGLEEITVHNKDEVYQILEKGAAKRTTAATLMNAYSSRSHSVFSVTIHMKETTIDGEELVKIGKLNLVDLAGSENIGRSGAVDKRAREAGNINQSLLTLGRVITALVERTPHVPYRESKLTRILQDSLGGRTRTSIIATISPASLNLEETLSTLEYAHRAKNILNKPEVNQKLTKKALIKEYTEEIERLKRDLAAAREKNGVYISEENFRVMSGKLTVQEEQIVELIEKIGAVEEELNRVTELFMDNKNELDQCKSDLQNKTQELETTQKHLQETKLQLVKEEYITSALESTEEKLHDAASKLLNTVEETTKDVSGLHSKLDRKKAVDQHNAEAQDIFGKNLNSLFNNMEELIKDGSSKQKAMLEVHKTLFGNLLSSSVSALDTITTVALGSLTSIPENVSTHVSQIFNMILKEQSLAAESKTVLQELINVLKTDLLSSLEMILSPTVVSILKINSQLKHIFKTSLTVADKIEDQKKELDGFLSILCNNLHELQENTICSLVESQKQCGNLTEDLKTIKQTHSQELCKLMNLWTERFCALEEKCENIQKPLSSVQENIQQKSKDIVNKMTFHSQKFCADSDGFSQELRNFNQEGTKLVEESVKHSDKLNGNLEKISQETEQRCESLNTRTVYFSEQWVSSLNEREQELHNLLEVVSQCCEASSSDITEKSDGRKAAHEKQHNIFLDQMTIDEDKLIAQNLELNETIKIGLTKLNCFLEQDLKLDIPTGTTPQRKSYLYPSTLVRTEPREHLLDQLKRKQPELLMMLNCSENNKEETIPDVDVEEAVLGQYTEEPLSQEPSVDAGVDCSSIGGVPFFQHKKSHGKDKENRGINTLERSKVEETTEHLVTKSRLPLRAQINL
In words: Partial inhibition of MT-stimulated ATPase activity of Eg5 D130V/A133D (unknown origin).

The source made the active and inactive calls. No cut-off for these calls is given here.

As for `Cc1ccc(C(=O)N(CCCN)[C@@H](c2oc3cc(Cl)ccc3c(=O)c2Cc2ccccc2)C(C)C)cc1`, the inhibition entry is “Active”.
